Consider 18 compounds from patent publication US20240316059A1, “PEPTIDE DRUG CONJUGATES” (Oncopeptides AB, priority 2021, published 2024).

In data set [1] the test system is MM.1S cells. Description: In vitro cytotoxic potency in MM.1S cell viability assay (CellTiter-Glo). Type of data set: cell-based, human. The settings on record: 72 h, read-out: MM.1S IC50. The method, then: Methods: MM.1S Cells were cultivated in RPMI medium 1640 (IX) supplemented with 10 μg/μL penicillin/streptomycin, 10% heat inactivated FBS, 0.1 mM Sodium Pyruvate, 1×MEM NEAA (ThermoFisher) and 1 mM HEPES. Cells were grown to reach log phase before being exposed to the test compounds.
Test compounds (Example compounds 1 to 36, 38 to 41 and 45 to 48) and comparative compounds (bendamustine, busulfan, melphalan, chlorambucil and 4-hydroperoxy cyclophosphamide) were dissolved in 100% DMSO and added to a 384 assay plate. Additional DMSO was added to maintain the same final DMSO concentration (0.2%) in all wells. 25 μL cell suspension with a concentration of 100000 cells/mL was added to each well. The cells were cultured in a CO2 incubator at 37° C. for 72 h. Plates were equilibrated to room temperature for 30 minutes before adding 20 μL CellTiter-Glo® 2.0 (Promega) reagent to all wells. The plate was then allowed to stabilize for 20 minutes before recording the luminescence (emission filter 700 nm) in an Envision plate reader.
All cells were cultivated in RPMI medium 1640 (IX). All media was supplemented with 10 μg/μl penicillin/streptomycin, 10% heat inactivated FBS, 0.1 mM Sodium Pyruvate, 1×MEM NEAA (ThermoFisher) and 1 mM HEPES. The DERL-2 cells had higher FBS (20%) and 40 ng/mL IL-2 was added. hPBMCs were thawed and allowed to acclimatise overnight and then stimulated with 10 μg/mL PHA-M and 40 ng/mL IL-2 for 4 hours before being exposed to test compounds. All cells, except for hPBMCs, were grown to reach log phase before being exposed to the test compounds.
Test compounds were dissolved in 100% DMSO and added to a 384 assay plate. Additional DMSO was added to maintain the same final DMSO concentration (0.2%) in all wells. 25 μL cell suspension with a concentration of 100000 cells/mL was added to each well. The cells were cultured in a CO2 incubator at 37° C. for 72 h. Plates were equilibrated to room temperature for 30 minutes before adding 20 μL CellTiter-Glo® 2.0 (Promega) reagent to all wells. The plate was then allowed to stabilize for 20 minutes before recording the luminescence (Em filter 700 nm) in an Envision plate reader.
On the technique in general: ATP-based viability assays read luminescence as a measure of living cells.

For data set [2], the system named is MM.1S cells. The experiment in a line: Cellular retention/efflux: intracellular and extracellular concentrations by LC-MS/MS. It is filed as in vitro ADME, human. The conditions noted are these: metabolites measured after treatment with the parent Example compound. The method, then: Methods: MMA1S cells at 2×10^6 cells/mL were seeded at 250 μL per well in a 96-well plate. Cells were incubated in the presence of a test compound for 5, 15, and 60 min before pelleting cells by centrifugation at +4° C. for 5 min. Cell media was immediately harvested to a second plate and stored at −80° C. until further analysis. Pelleted cells were washed once with ice cold PBS before storage at −80° C. until further analysis.
Cells were lysed and protein in the media were precipitated using acetonitrile dimethylformamide, 9:1 containing internal standard. Samples were centrifuged and the supernatant was analyzed with LC-MS/MS (ACQUITY UPLC-Xevo TQ-S micro) to determine compound concentration.
Example compound 1, bendamustine and melphalan were used as test compounds.
Method: Method described in Biological example 3.
Example compounds 1, 2, 3, 4, 6, 7 and 10 were investigated. Intracellular metabolites are formed from all compounds tested. The compound used for cell treatment was metabolised to the ester-hydrolysed compound (here called Metabolite A) and to the amide-hydrolysed compound (called Metabolite B). The example compound structures and the structures of the two metabolites for the respective compounds were as shown in Table 4. The Metabolites B formed under the conditions tested were compounds with structure as Examples 17 and 18: […]

The subject of data set [3] is DNA prepared from MM.1S cells (nuclear HPRT and mitochondrial DNA). Description: Direct DNA damage, PCR amplification of treated DNA (HPRT and mtDNA primers). It is filed as biochemical, human. The settings on record: 0.25 μM compound, 30 minutes, 37° C., 1 μg DNA. On the procedure: Method: DNA was prepared from MM.1S cells by QIAGEN genomic tip 20/G according to protocol described in Furda et al., Methods Mol Biol, 2012. 1 μg of DNA was treated with 0.25 μM compound for 30 minutes at 37° C. DMSO was used as control treatment. 20 ng of the treated DNA was PCR amplified using Phusion Hot Start II High Fidelity PCR Master Mix (Thermo Scientific) and primers directed to either HPRT or primers directed to mitochondrial DNA (mtDNA) was used, generating 10.4 or 8.9 kb fragments, respectively. The PCR reactions were separated on a 1% agarose gel and visualized by ChemiDoc™ MP Imaging System (BioRad). Example compounds 1, 2 and 38 were investigated, as were compounds 18 and 20, which are metabolites of compound 1. They were compared with bendamustine, melphalan and DMSO control. The results for compounds 1, 2, 18 and 20 with the HPRT primers are shown in FIG. 4(A); the results with the mtDNA primers are shown in FIG. 4(B).

pIC50: −log10 of the molar value. Like-named read-outs stand apart in the source and are kept apart here.

As for `Cn1c(CC[C@H](N)C(=O)O)nc2cc(N(CCCl)CCCl)ccc21` [Example 18, (S)-2-amino-4-(5-(bis(2-chloroethyl)amino)-1-methyl-1H-benzo[d]imidazol-2-yl)butanoic acid], the pIC50 (usually the negative decadic logarithm of the IC50, by convention in mol/L) in data set [1] (Homo sapiens, MM1.S) was 4.69. Further, the “Intracellular concentration (in words)” value in data set [2] (MM.1S cells incubated with test compound 5, 15, 60 min) is reported as “rapidly formed inside the cells”. Also, in data set [2] (media of MM.1S cells incubated with test compound 5, 15, 60 min), the “Extracellular concentration (in words)” value is “low levels of it are found in the media outside the cells”. The “DNA damage on nuclear and mitochondrial DNA (PCR band)” value in data set [3] was “effectively damaged both nuclear and mitochondrial DNA”.
Take `CC(C)C[C@H](NC(=O)[C@@H](N)CCc1nc2cc(N(CCCl)CCCl)ccc2n1C)C(=O)O` [Example 20, (2S)-2-[[(2S)-2-amino-4-[5-[bis(2-chloroethyl)amino]-1-methyl-benzimidazol-2-yl]butanoyl]amino]-4-methyl-pentanoic acid]: the pIC50 in data set [1] (Homo sapiens, MM1.S) was 5.24. Further, in data set [3], the “DNA damage on nuclear and mitochondrial DNA (PCR band)” value is “DNA damaging effect but to a lesser degree compared to Example compounds 1, 2 and 18”.
Regarding `CC(C)C[C@H](NC(=O)[C@@H](N)CCc1nc2cc(N(CCCl)CCCl)ccc2n1C)C(=O)OC(C)C` [Example 26, Isopropyl (2S)-2-[[(2S)-2-amino-4-[5-[bis(2-chloroethyl)amino]-1-methyl-benzimidazol-2-yl]butanoyl]amino]-4-methyl-pentanoate], the pIC50 in data set [1] (Homo sapiens, MM1.S) was 8.17.
The same measure, in the same setting: next, `COC(=O)[C@H](CC(C)C)NC(=O)[C@@H](N)CCc1nc2cc(N(CCCl)CCCl)ccc2n1C` [Example 27, Methyl (2S)-2-[[(2S)-2-amino-4-[5-[bis(2-chloroethyl)amino]-1-methyl-benzimidazol-2-yl]butanoyl]amino]-4-methyl-pentanoate]: 8.09.
Same read-out and setting: next, `CC(C)C[C@H](NC(=O)[C@@H](N)CCc1nc2cc(N(CCCl)CCCl)ccc2n1C)C(=O)OCCCN(C)C` [Example 28, 3-(Dimethylamino)propyl (2S)-2-[[(2S)-2-amino-4-[5-[bis(2-chloroethyl)amino]-1-methyl-benzimidazol-2-yl]butanoyl]amino]-4-methyl-pentanoate]: 6.45.
Turning to `COCC(C)OC(=O)[C@H](CC(C)C)NC(=O)[C@@H](N)CCc1nc2cc(N(CCCl)CCCl)ccc2n1C` (stereo partly drawn) [Example 29, (2-Methoxy-1-methyl-ethyl) (2S)-2-[[(2S)-2-amino-4-[5-[bis(2-chloroethyl)amino]-1-methyl-benzimidazol-2-yl]butanoyl]amino]-4-methyl-pentanoate], the pIC50 in data set [1] (CellTiter-Glo 2.0) was 8.85.
Take `CNC(=O)[C@H](CC(C)C)NC(=O)[C@@H](N)CCc1nc2cc(N(CCCl)CCCl)ccc2n1C` [Example 31, (2S)-2-[[(2S)-2-amino-4-[5-[bis(2-chloroethyl)amino]-1-methyl-benzimidazol-2-yl]butanoyl]amino]-N,4-dimethyl-pentanamide]: the pIC50 in data set [1] (Homo sapiens, MM1.S) was 6.74.
Same read-out and setting: the figure for `CCOC(=O)[C@H](CC(C)C)NC(=O)[C@H](CCc1nc2cc(N(CCCl)CCCl)ccc2n1C)NC` [Example 32, Ethyl (2S)-2-[[(2S)-4-[5-[bis(2-chloroethyl)amino]-1-methyl-benzimidazol-2-yl]-2-(methylamino)butanoyl]amino]-4-methyl-pentanoate] is 7.84; for `CN[C@@H](CCc1nc2cc(N(CCCl)CCCl)ccc2n1C)C(=O)N[C@@H](CC(C)C)C(=O)O` [Example 33, (2S)-2-[[(2S)-4-[5-[bis(2-chloroethyl)amino]-1-methyl-benzimidazol-2-yl]-2-(methylamino)butanoyl]amino]-4-methyl-pentanoic acid] it is 4.10; for `CCOC(=O)[C@H](CC(C)C)NC(=O)[C@H](Cc1nc2cc(N(CCCl)CCCl)ccc2n1C)NC(C)=O` [Example 35, Ethyl (2S)-2-[[(2S)-2-acetamido-3-[5-[bis(2-chloroethyl)amino]-1-methyl-benzimidazol-2-yl]propanoyl]amino]-4-methyl-pentanoate] it is 7.06.
Same read-out and setting: next, `CCOC(=O)[C@H](Cc1ccc(F)cc1)NC(=O)[C@H](Cc1nc2cc(N(CCCl)CCCl)ccc2n1C)NC(C)=O` [Example 36, Ethyl (2S)-2-[[(2S)-2-acetamido-3-[5-[bis(2-chloroethyl)amino]-1-methyl-benzimidazol-2-yl]propanoyl]amino]-3-(4-fluorophenyl)propanoate]: 7.24; `Cn1c(CC[C@H](N)C(=O)N[C@@H](Cc2ccc(F)cc2)C(=O)O)nc2cc(N(CCCl)CCCl)ccc21` [Example 39, (2S)-2-[[(2S)-2-Amino-4-[5-[bis(2-chloroethyl)amino]-1-methyl-benzimidazol-2-yl]butanoyl]amino]-3-(4-fluorophenyl)propanoic acid]: less than 5.70; `CC(C)C[C@H](NC(=O)[C@@H](N)CCc1nc2cc(N(CCCl)CCCl)ccc2n1-c1ccccc1)C(=O)O` [Example 40, (2S)-2-[[(2S)-2-Amino-4-[5-[bis(2-chloroethyl)amino]-1-phenyl-benzimidazol-2-yl]butanoyl]amino]-4-methyl-pentanoic acid]: 5.14.
Turning to `N[C@@H](CCc1nc2cc(N(CCCl)CCCl)ccc2n1-c1ccccc1)C(=O)O` [Example 41, (2S)-2-Amino-4-[5-[bis(2-chloroethyl)amino]-1-phenyl-benzimidazol-2-yl]butanoic acid], the negative logarithm of the IC50 (pIC50) in data set [1] (Homo sapiens, MM1.S) was 4.78.
Still for that read-out and setting: next, `CCOC(=O)[C@@H](CC(C)C)NC(=O)[C@@H](N)CCc1nc2cc(N(CCCl)CCCl)ccc2n1C` [Example 45, Ethyl (2R)-2-[[(2S)-2-amino-4-[5-[bis(2-chloroethyl)amino]-1-methyl-benzimidazol-2-yl]butanoyl]amino]-4-methyl-pentanoate]: 6.29; `CCOC(=O)[C@H](CC(C)C)NC(=O)[C@H](N)CCc1nc2cc(N(CCCl)CCCl)ccc2n1C` [Example 46, Ethyl (2S)-2-[[(2R)-2-amino-4-[5-[bis(2-chloroethyl)amino]-1-methyl-benzimidazol-2-yl]butanoyl]amino]-4-methyl-pentanoate]: 7.23; `CCOC(=O)[C@@H](CC(C)C)NC(=O)[C@H](N)CCc1nc2cc(N(CCCl)CCCl)ccc2n1C` [Example 47, Ethyl (2R)-2-[[(2R)-2-amino-4-[5-[bis(2-chloroethyl)amino]-1-methyl-benzimidazol-2-yl]butanoyl]amino]-4-methyl-pentanoate]: 5.77.
The same measure, in the same setting: next, `CCOC(=O)[C@H](CC(C)C)NC(=O)[C@@H](N)CCc1nc2cc(N(CCCl)CCCl)cnc2n1C` [Example 48, Ethyl (2S)-2-[[(2S)-2-amino-4-[6-[bis(2-chloroethyl)amino]-3-methyl-imidazo[4,5-b]pyridin-2-yl]butanoyl]amino]-4-methyl-pentanoate]: 6.69.
